Measurements taken from US5416191A, “Bradykinin antagonists” (Cortech, Inc., priority 1993, dated 1995).
Like-named read-outs stand apart in the source and are kept apart here. Peptide text beside a SMILES is read from it.

Experiments:
[1] = target: T1, bradykinin receptor of the B2 class (guinea-pig ileum) (Cavia porcellus, UniProt O70526)
T1 sequence (O70526 1-372): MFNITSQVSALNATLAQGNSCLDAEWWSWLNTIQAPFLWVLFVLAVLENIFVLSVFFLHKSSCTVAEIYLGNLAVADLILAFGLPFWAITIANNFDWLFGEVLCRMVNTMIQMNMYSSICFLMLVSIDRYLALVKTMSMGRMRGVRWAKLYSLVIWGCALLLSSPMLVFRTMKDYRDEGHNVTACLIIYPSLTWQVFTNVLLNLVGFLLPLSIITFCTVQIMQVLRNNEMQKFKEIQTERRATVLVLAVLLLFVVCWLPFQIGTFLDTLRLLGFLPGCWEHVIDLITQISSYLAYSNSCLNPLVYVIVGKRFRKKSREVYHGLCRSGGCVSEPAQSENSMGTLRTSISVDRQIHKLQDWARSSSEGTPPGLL

[2] = target: T1, bradykinin receptor of the B2 class (guinea-pig ileum); conditions: for GPI % REC: recovery after wash, lower = longer duration; for pA2 GUINEA PIG ILEUM: Table B, Cys position scan, monomers and BMH dimers
[3] = target: T2, bradykinin receptor of the B2 class (rabbit jugular vein) (Oryctolagus cuniculus, UniProt Q28642); experiment: Rabbit jugular vein (RJV) in vitro, antagonism of bradykinin; conditions: for RJV % REC: recovery after wash
T2 construct: from tissue; host or cells: rabbit jugular vein
T2 sequence (Q28642 1-367): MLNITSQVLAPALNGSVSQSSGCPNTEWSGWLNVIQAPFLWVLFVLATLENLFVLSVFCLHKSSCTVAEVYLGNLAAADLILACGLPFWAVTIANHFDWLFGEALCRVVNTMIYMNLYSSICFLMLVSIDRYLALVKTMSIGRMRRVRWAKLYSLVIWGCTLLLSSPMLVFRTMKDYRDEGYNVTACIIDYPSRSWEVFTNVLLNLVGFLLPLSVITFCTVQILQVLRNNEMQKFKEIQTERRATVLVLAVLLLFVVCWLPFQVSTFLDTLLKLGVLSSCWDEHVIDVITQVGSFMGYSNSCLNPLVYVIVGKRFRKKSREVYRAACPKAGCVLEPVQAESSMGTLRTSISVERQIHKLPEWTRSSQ
Procedure: Thus in vitro studies were performed on standard assay systems, namely, guinea-pig ileum (GPI), rat uterus (RU) and rabbit jugular vein (RJV). […] The potency of each compound was assessed as a pA2 value according to the method of Arunlakshana & Schild, Br. J. Pharmacol. Chemother., 14:48-58 (1959). The PA2 can be defined as the negative logarithm of the molar concentration of the antagonist in the presence of which the potency of the agonist is reduced two-fold, i.e. twice the amount of agonist is required to produce a given response in the presence of, than in the absence of, the antagonist. A high potency of antagonism is indicated by a high PA2 value, i.e., a low concentration of antagonist is effective.
The percentage recovery (% Rec) was also determined for compounds with respect to each assay. Percentage recovery is a measure of the duration of action, the lower the percentage recovery value, the greater the duration of action of the compound.

[4] = target: T3, bradykinin receptor of the B2 class (rat uterus) (Rattus norvegicus, UniProt P25023); experiment: Rat uterus (RU) in vitro, antagonism of bradykinin; conditions: for RU % REC: recovery after wash
T3 construct: concentration effect curves to bradykinin (BK) on rat uterus in vitro; from tissue; host or cells: rat uterus
T3 sequence (P25023 1-396): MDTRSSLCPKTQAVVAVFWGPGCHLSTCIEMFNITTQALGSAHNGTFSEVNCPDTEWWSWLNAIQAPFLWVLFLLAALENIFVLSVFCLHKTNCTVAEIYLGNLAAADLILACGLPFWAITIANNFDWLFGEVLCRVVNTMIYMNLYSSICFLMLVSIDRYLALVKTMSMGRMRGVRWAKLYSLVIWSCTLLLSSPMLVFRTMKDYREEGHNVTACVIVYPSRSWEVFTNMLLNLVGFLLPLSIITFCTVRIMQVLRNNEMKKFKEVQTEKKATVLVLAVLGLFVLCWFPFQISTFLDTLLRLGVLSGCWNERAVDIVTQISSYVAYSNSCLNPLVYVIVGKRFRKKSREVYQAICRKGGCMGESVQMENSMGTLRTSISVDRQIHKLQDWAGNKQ
In short: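 Isolated rat uterus; bradykinin antagonism expressed as pA2, the negative log molar antagonist concentration that halves agonist potency. After the highest antagonist concentration, tissues were washed extensively and percent recovery was recorded.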

[5] = system: bradykinin-induced vascular permeability; experiment: Rabbit skin vascular permeability (Evans Blue, intradermal bradykinin); type: in vivo
Procedure: In these experiments, two protocols were used. The first protocol used the classical assay in which bradykinin was injected intradermally either alone or in combination with the compound under investigation following intravenous administration of Evans Blue dye. Thirty minutes after intradermal injection of bradykinin with and without the compound, the animal was killed, its skin removed and the area of "blueing" (i.e., vascular permeability or edema) measured.
The second protocol involved pre-injecting the test compound either 15 or 30 minutes before injecting bradykinin in the same site. The results are shown in FIGS. 2B and 2C, respectively.

[6] = system: bradykinin-induced hypotension; experiment: Bradykinin-induced hypotension in the anesthetized rat; type: in vivo; conditions: intravenous infusion 25 μg kg^-1 min^-1; bradykinin 4×10^-9 moles; FIG. 3
[7] = Table A, read-out: RJV pA2 (converted)

Structure (SMILES)	GPI % REC ([2]; Table A) [%]	Kb [3, 7] [nM]	RJV % REC ([3]; Table A) [%]	RU % REC ([4]; Table A) [%]	pA2 DIMER ([4]; Table C, rat uterus)	% RECOVERY ([4]; Table F, rat uterus) [%]	Kb [1] [nM]	pA2 GUINEA PIG ILEUM [2]	also measured
CC(C)C[C@H](NC(=O)[C@@H](Cc1ccccc1)NC(=O)[C@H](CSC1CC(=O)N(CCCCCCN2C(=O)CC(SC[C@H](NC(=O)[C@H](Cc3ccccc3)NC(=O)CNC(=O)[C@@H]3C[C@@H](O)CN3C(=O)[C@@H]3CCCN3C(=O)[C@H](CCCNC(=N)N)NC(=O)[C@H](N)CCCNC(=N)N)C(=O)N[C@H](Cc3ccccc3)C(=O)N[C@@H](CC(C)C)C(=O)N[C@@H](CCCNC(=N)N)C(=O)O)C2=O)C1=O)NC(=O)[C@H](Cc1ccccc1)NC(=O)CNC(=O)[C@@H]1C[C@@H](O)CN1C(=O)[C@@H]1CCCN1C(=O)[C@H](CCCNC(=N)N)NC(=O)[C@H](N)CCCNC(=N)N)C(=O)N[C@@H](CCCNC(=N)N)C(=O)O (stereo partly drawn) [CP-0127] (HELM PEPTIDE1{[dR].R.P.[Hyp].G.F.C.[dF].L.R}|PEPTIDE2{[dR].R.P.[Hyp].G.F.C.[dF].L.R}|CHEM1{[O=C1CC([*:1])C(=O)N1CCCCCCN1C(=O)CC([*:2])C1=O]}$PEPTIDE1,CHEM1,7:R3-1:R1|PEPTIDE2,CHEM1,7:R3-1:R2$$$V2.0)	100	0.0316	10	50	8.8	50	–	–	Kb ([1]; pA2 GUINEA PIG ILEUM, Table B, Cys position scan, monomers and BMH dimers): ~20 nM; GPI pA2 ([2]; Table A): 7.7; % REC DIMER ([4]; Table C, rat uterus): 50%; % REC (40 MIN) ([4]; Table D, 40 min): 50%; pA2 (UTERUS) ([4]; Table D, effect of linker length): 8.8; RAT UTERUS % RECOVERED ([4]; Table E): 50%; RAT UTERUS pA2 ([4]; Table E): 8.8
CC(C)C[C@H](NC(=O)[C@@H](Cc1ccccc1)NC(=O)[C@H](CS)NC(=O)[C@H](Cc1ccccc1)NC(=O)CNC(=O)[C@@H]1C[C@@H](O)CN1C(=O)[C@@H]1CCCN1C(=O)[C@H](CCCNC(=N)N)NC(=O)[C@H](N)CCCNC(=N)N)C(=O)N[C@@H](CCCNC(=N)N)C(=O)O [CP-0126] (HELM PEPTIDE1{[dR].R.P.[Hyp].G.F.C.[dF].L.R}$$$$V2.0)	–	–	60	–	–	–	501	–	Kb ([1]; GPI pA2, Table A): 398 nM; GPI pA2 [2]: ≈ 6.3; Inhibition of bradykinin-induced vascular permeability, co-injected ([5]; intradermal, injected in combination with bradykinin, FIG. 2A): more potent than CP-0127; Inhibition of bradykinin-induced vascular permeability, pre-injected ([5]; pre-injected 15 or 30 minutes before bradykinin in the same site, FIGS. 2B/2C): significantly less effective; Kb [3]: 1.58 nM; Recovery of bradykinin concentration effect curve after washing ([4]; rat uterus, after highest antagonist concentration, FIGS. 1A/1B): almost returns to that seen in the control; Inhibition of hypotensive response to bradykinin [6]: almost totally ineffective
CC(C)C[C@H](NC(=O)[C@H](CSC1CC(=O)N(CCCCCCN2C(=O)CC(SC[C@H](NC(=O)[C@H](CO)NC(=O)[C@H](Cc3ccccc3)NC(=O)CNC(=O)[C@@H]3C[C@@H](O)CN3C(=O)[C@@H]3CCCN3C(=O)[C@H](CCCNC(=N)N)NC(=O)[C@H](N)CCCNC(=N)N)C(=O)N[C@@H](CC(C)C)C(=O)N[C@@H](CCCNC(=N)N)C(=O)O)C2=O)C1=O)NC(=O)[C@H](CO)NC(=O)[C@H](Cc1ccccc1)NC(=O)CNC(=O)[C@@H]1C[C@@H](O)CN1C(=O)[C@@H]1CCCN1C(=O)[C@H](CCCNC(=N)N)NC(=O)[C@H](N)CCCNC(=N)N)C(=O)N[C@@H](CCCNC(=N)N)C(=O)O (stereo partly drawn) [CP-0157] (HELM PEPTIDE1{[dR].R.P.[Hyp].G.F.S.C.L.R}|PEPTIDE2{[dR].R.P.[Hyp].G.F.S.C.L.R}|CHEM1{[O=C1CC([*:1])C(=O)N1CCCCCCN1C(=O)CC([*:2])C1=O]}$PEPTIDE1,CHEM1,8:R3-1:R1|PEPTIDE2,CHEM1,8:R3-1:R2$$$V2.0)	–	–	–	–	Inactive	–	–	Inactive	–
CC(C)C[C@H](NC(=O)[C@@H](Cc1ccccc1)NC(=O)[C@H](CO)NC(=O)[C@H](Cc1ccccc1)NC(=O)CNC(=O)[C@@H]1C[C@@H](O)CN1C(=O)[C@@H]1CCCN1C(=O)[C@H](CCCNC(=N)N)NC(=O)[C@H](N)CCCNC(=N)N)C(=O)N[C@@H](CCCNC(=N)N)C(=O)O [CP-0088, dARG^0 -Arg^1 -Pro^2 -Hyp^3 -Gly^4 -Phe^5 -Ser^6 -(d)Phe^7 -Leu^8 -Arg^9, reference compound] (HELM PEPTIDE1{[dR].R.P.[Hyp].G.F.S.[dF].L.R}$$$$V2.0)	100	3.16	90	100	–	100	251	–	Kb ([4]; Table A, read-out: RU pA2 (converted)): 39.8 nM; % REC MONOMER ([4]; Table C, rat uterus): 100%; pA2 MONOMER ([4]; Table C, rat uterus, P.A. = Partial Agonist): 7.4; RAT UTERUS pA2 ([4]; Table F): 7.4
CC(C)C[C@H](NC(=O)[C@@H](Cc1ccccc1)NC(=O)[C@H](CO)NC(=O)[C@H](Cc1ccccc1)NC(=O)[C@H](CSC1CC(=O)N(CCCCCCN2C(=O)CC(SC[C@H](NC(=O)[C@@H]3C[C@@H](O)CN3C(=O)[C@@H]3CCCN3C(=O)[C@H](CCCNC(=N)N)NC(=O)[C@H](N)CCCNC(=N)N)C(=O)N[C@@H](Cc3ccccc3)C(=O)N[C@@H](CO)C(=O)N[C@H](Cc3ccccc3)C(=O)N[C@@H](CC(C)C)C(=O)N[C@@H](CCCNC(=N)N)C(=O)O)C2=O)C1=O)NC(=O)[C@@H]1C[C@@H](O)CN1C(=O)[C@@H]1CCCN1C(=O)[C@H](CCCNC(=N)N)NC(=O)[C@H](N)CCCNC(=N)N)C(=O)N[C@@H](CCCNC(=N)N)C(=O)O (stereo partly drawn) [CP-0137] (HELM PEPTIDE1{[dR].R.P.[Hyp].C.F.S.[dF].L.R}|PEPTIDE2{[dR].R.P.[Hyp].C.F.S.[dF].L.R}|CHEM1{[O=C1CC([*:1])C(=O)N1CCCCCCN1C(=O)CC([*:2])C1=O]}$PEPTIDE1,CHEM1,5:R3-1:R1|PEPTIDE2,CHEM1,5:R3-1:R2$$$V2.0)	–	–	–	–	Inactive	–	–	Inactive	–
